# Where two headings read alike, the source gives them in different places.
# Columns and labels:
# Assay in all cases: MIC, agar dilution method, pH 8.0
# Assay type in all cases: cell-based
# [1] = tested on: Salmonella typhosa KY4278 ATCC9992; conditions: Salmonella enterica, pH 8, read-out: Minimum inhibition concentration (MIC), ST
# Procedure: (§1) Measurement was carried out according to the agar dilution method, using a medium of pH 8.0, or the Japanese Antibiotic Medicament Standard, using a medium of pH 7.2 Units are in mcg/ml.
# S.T.: Salmonella typhosa KY4278 ATCC9992
# [2] = tested on: Klebsiella pneumoniae KY4275 ATCC10031; conditions: ATCC10031; pH 8.0; Klebsiella pneumoniae KY4275; read-out: Minimum inhibition concentration (MIC), KP
# Procedure: as §1
# K.P.: Klebsiella pneumoniae KY4275 ATCC10031.
# [3] = tested on: Staphylococcus aureus KY4279 ATCC6538P
# Procedure: as §1
# S.A.: Staphylococcus aureus KY4279 ATCC6538P
# [4] = tested on: Eschericia coli KY4271 ATCC26; conditions: Escherichia coli
# Procedure: as §1
# E.C.: Eschericia coli KY4271 ATCC26
# [5] = tested on: Proteus vulgaris KY4277 ATCC6897
# Procedure: as §1
# [6] = tested on: Shigella sonnei KY4281 ATCC9290
# Procedure: as §1
# Bacillus subtilis KY4273 = tested on: Bacillus subtilis KY4273
# Procedure: as §1
# B.S.: Bacillus subtilis KY4273
# [7] = pH 8.0, Staphylococcus aureus KY4279, read-out: Minimum inhibition concentration (MIC), SA
# [8] = ATCC26, pH 8.0, E. coli KY4271, read-out: Minimum inhibition concentration (MIC), EC
# [9] = ATCC6897, pH 8.0, Proteus vulgaris KY4277, read-out: Minimum inhibition concentration (MIC), PV
# [10] = ATCC9290, pH 8.0, Shigella sonnei KY4281, read-out: Minimum inhibition concentration (MIC), SS
# [11] = pH 8.0, Bacillus subtilis KY4273, read-out: Minimum inhibition concentration (MIC), BS
# [12] = Bacillus subtilis, KY4273, pH 8, read-out: Minimum inhibition concentration (MIC), BS
# [13] = ATCC26, pH 8, read-out: Minimum inhibition concentration (MIC), EC
# [14] = Proteus vulgaris, ATCC6897, pH 8, read-out: Minimum inhibition concentration (MIC), PV
# [15] = Staphylococcus aureus, pH 8, read-out: Minimum inhibition concentration (MIC), SA
Compound,MIC [1],MIC [2],"MIC [3, 7]","MIC [4, 8]","MIC [5, 9]","MIC [6, 10]",MIC (Bacillus subtilis KY4273; [11]),MIC (Bacillus subtilis KY4273; [12]),"MIC [4, 13]","MIC [5, 14]","MIC [3, 15]","MIC ([6]; Shigella sonnei, ATCC9290, pH 8, read-out: Minimum inhibition concentration (MIC), SS)"
"CO[C@H]1[C@@H](O)[C@H](N)[C@@H](O[C@H]2O[C@H]([C@H](C)N)CC[C@H]2N)[C@H](O)[C@@H]1N(C)C(C)=O [Compound 5, 4-N-acetylfortimicin B]",50 µg/mL,> 200 µg/mL,12.5 µg/mL,50 µg/mL,100 µg/mL,50 µg/mL,50 µg/mL,–,–,–,–,–
"CCC(=O)N(C)[C@H]1[C@@H](O)[C@H](O[C@H]2O[C@H]([C@H](C)N)CC[C@H]2N)[C@@H](N)[C@H](O)[C@@H]1OC [Compound 6, 4-N-propionylfortimicin B]",50 µg/mL,> 200 µg/mL,12.5 µg/mL,50 µg/mL,200 µg/mL,> 200 µg/mL,50 µg/mL,–,–,–,–,–
"CCCC(=O)N(C)[C@H]1[C@@H](O)[C@H](O[C@H]2O[C@H]([C@H](C)N)CC[C@H]2N)[C@@H](N)[C@H](O)[C@@H]1OC [Compound 7, 4-N-(n-butyryl)fortimicin B]",12.5 µg/mL,25 µg/mL,6.25 µg/mL,6.25 µg/mL,100 µg/mL,50 µg/mL,–,12.5 µg/mL,–,–,–,–
"CCCCC(=O)N(C)[C@H]1[C@@H](O)[C@H](O[C@H]2O[C@H]([C@H](C)N)CC[C@H]2N)[C@@H](N)[C@H](O)[C@@H]1OC [Compound 8, 4-N-(n-valeryl)fortimicin B]",> 200 µg/mL,> 200 µg/mL,100 µg/mL,> 100 µg/mL,> 200 µg/mL,> 200 µg/mL,25 µg/mL,–,–,–,–,–
"CO[C@H]1[C@@H](O)[C@H](N)[C@@H](O[C@H]2O[C@H]([C@H](C)N)CC[C@H]2N)[C@H](O)[C@@H]1N(C)C(=O)CCN [Compound 9, 4-N-(β-alanyl)fortimicin B]",0.32 µg/mL,0.32 µg/mL,0.08 µg/mL,0.63 µg/mL,0.63 µg/mL,1.25 µg/mL,0.08 µg/mL,–,–,–,–,–
"CO[C@H]1[C@@H](O)[C@H](N)[C@@H](O[C@H]2O[C@H]([C@H](C)N)CC[C@H]2N)[C@H](O)[C@@H]1N(C)C(=O)CCCN [Compound 10, 4-N-(γ-amino-n-butyryl)fortimicin B]",0.63 µg/mL,2.5 µg/mL,0.32 µg/mL,1.25 µg/mL,1.25 µg/mL,2.5 µg/mL,0.16 µg/mL,–,–,–,–,–
"CO[C@H]1[C@@H](O)[C@H](N)[C@@H](O[C@H]2O[C@H]([C@H](C)N)CC[C@H]2N)[C@H](O)[C@@H]1N(C)C(=O)CCCCCN [Compound 12, 4-N-(ε-amino-n-caproyl)fortimicin B]",> 20 µg/mL,> 20 µg/mL,> 20 µg/mL,> 20 µg/mL,> 20 µg/mL,> 20 µg/mL,> 20 µg/mL,–,–,–,–,–
"CO[C@H]1[C@@H](O)[C@H](N)[C@@H](O[C@H]2O[C@H]([C@H](C)N)CC[C@H]2N)[C@H](O)[C@@H]1N(C)C(=O)CNC(=O)CN [Compound 13, 4-N-glycylglycylfortimicin B]",1.25 µg/mL,2.5 µg/mL,0.32 µg/mL,–,2.5 µg/mL,5 µg/mL,0.32 µg/mL,–,1.25 µg/mL,–,–,–
"CCN(C)[C@H]1[C@@H](O)[C@H](O[C@H]2O[C@H]([C@H](C)N)CC[C@H]2N)[C@@H](N)[C@H](O)[C@@H]1OC [Compound 16, 4-N-ethylfortimicin B]",3.13 µg/mL,50 µg/mL,1.56 µg/mL,–,–,6.25 µg/mL,–,3.13 µg/mL,3.13 µg/mL,6.25 µg/mL,–,–
"CCCN(C)[C@H]1[C@@H](O)[C@H](O[C@H]2O[C@H]([C@H](C)N)CC[C@H]2N)[C@@H](N)[C@H](O)[C@@H]1OC [Compound 17, 4-N-(n-propyl)fortimicin B]",6.25 µg/mL,100 µg/mL,3.13 µg/mL,–,–,12.5 µg/mL,–,12.5 µg/mL,6.25 µg/mL,12.5 µg/mL,–,–
"CCCCN(C)[C@H]1[C@@H](O)[C@H](O[C@H]2O[C@H]([C@H](C)N)CC[C@H]2N)[C@@H](N)[C@H](O)[C@@H]1OC [Compound 18, 4-N-(n-butyl)fortimicin B]",12.5 µg/mL,> 200 µg/mL,–,25 µg/mL,100 µg/mL,25 µg/mL,25 µg/mL,–,–,–,12.5 µg/mL,–
"CCCCCN(C)[C@H]1[C@@H](O)[C@H](O[C@H]2O[C@H]([C@H](C)N)CC[C@H]2N)[C@@H](N)[C@H](O)[C@@H]1OC [Compound 19, 4-N-(n-pentyl)fortimicin B]",100 µg/mL,> 200 µg/mL,25 µg/mL,100 µg/mL,> 200 µg/mL,100 µg/mL,200 µg/mL,–,–,–,–,–
"CO[C@H]1[C@@H](O)[C@H](N)[C@@H](O[C@H]2O[C@H]([C@H](C)N)CC[C@H]2N)[C@H](O)[C@@H]1N(C)CCCN [Compound 20, 4-N-(3-aminopropyl)fortimicin B]",1.25 µg/mL,80 µg/mL,–,5 µg/mL,10 µg/mL,20 µg/mL,2.5 µg/mL,–,–,–,1.25 µg/mL,–
"CO[C@H]1[C@@H](O)[C@H](N)[C@@H](O[C@H]2O[C@H]([C@H](C)N)CC[C@H]2N)[C@H](O)[C@@H]1N(C)CCCCN [Compound 21, 4-N-(4-aminobutyl)fortimicin B]",1.25 µg/mL,5 µg/mL,0.32 µg/mL,–,2.5 µg/mL,2.5 µg/mL,0.32 µg/mL,–,1.25 µg/mL,–,–,–
"CO[C@H]1[C@@H](O)[C@H](N)[C@@H](O[C@H]2O[C@H]([C@H](C)N)CC[C@H]2N)[C@H](O)[C@@H]1N(C)CCCCCN [Compound 22, 4-N-(5-aminopentyl)fortimicin B]",2.5 µg/mL,20 µg/mL,1.25 µg/mL,5 µg/mL,10 µg/mL,5 µg/mL,0.63 µg/mL,–,–,–,–,–
"CO[C@H]1[C@@H](O)[C@H](N)[C@@H](O[C@H]2O[C@H]([C@H](C)N)CC[C@H]2N)[C@H](O)[C@@H]1N(C)CCCCCCN [Compound 23, 4-N-(6-aminohexyl)fortimicin B]",20 µg/mL,> 80 µg/mL,5 µg/mL,20 µg/mL,> 80 µg/mL,> 80 µg/mL,5 µg/mL,–,–,–,–,–
"CO[C@H]1[C@@H](O)[C@H](N)[C@@H](O[C@H]2O[C@H]([C@H](C)N)CC[C@H]2N)[C@H](O)[C@@H]1N(C)CCO [Compound 24, 4-N-(2-hydroxyethyl)fortimicin B]",1.25 µg/mL,40 µg/mL,–,5 µg/mL,10 µg/mL,10 µg/mL,> 80 µg/mL,–,–,–,1.25 µg/mL,–
"CO[C@H]1[C@@H](O)[C@H](N)[C@@H](O[C@H]2O[C@H]([C@H](C)N)CC[C@H]2N)[C@H](O)[C@@H]1N(C)CCNCCN [Compound 25, 4-N-[2-(2-aminoethyl)aminoethyl]fortimicin B]",1.25 µg/mL,5 µg/mL,0.63 µg/mL,–,5 µg/mL,5 µg/mL,–,1.25 µg/mL,1.25 µg/mL,–,–,–
"CO[C@H]1[C@@H](O)[C@H](N)[C@@H](O[C@H]2O[C@H]([C@H](C)N)CC[C@H]2N)[C@H](O)[C@@H]1N(C)C[C@@H](O)CCCN [Compound 33, 4-N-[(S)-5-amino-2-hydroxypentyl]fortimicin B]",10 µg/mL,–,0.32 µg/mL,2.5 µg/mL,5 µg/mL,–,–,1.25 µg/mL,–,–,–,1.25 µg/mL
